Article PMC7934871 (JCI Insight, 2021)
Non-standard residues stand in square brackets, D forms with d. No end group written: not given here. pY = N[C@@H](Cc1ccc(OP(=O)(O)O)cc1)C(=O)O

System: STAT3 signaling
Assay: Gene expression of STAT3 targets by quantitative PCR
Type: cell-based
Settings: 1 μM, with or without IL-6 stimulation, n = 3
Procedure: Figure 8 PS-Gp130 and PS-MYC blocking peptides efficiently internalize into tumor cells to exert their functions. (A) For 1 hour 1 μM of PS-conjugated MYC (PS-MYC) and Gp130 (PS-Gp130) were incubated with cancer cells. PS-scramble MYC (PS-SC-MYC) was used as a control for PS-MYC. The peptide uptake was visualized by confocal microscopy and quantified by flow cytometry. Data are representative of 3 independent experiments (n = 3). (B) Upper panel: The binding of PS-Gp130 and STAT3 was examined by immunoprecipitation and Western blotting. PO-Gp130 was used as a control. For 4 hours prior to harvest, 1 μM of peptide was incubated with cells. […] (C) Gene expression of STAT3 targets was examined by quantitative PCR after the treatment with 1 μM of PS-Gp130 with or without IL-6 stimulation as described above. […] (D) A total of 1 μM of PS-SC-MYC or PS-MYC was incubated with cells for 48 hours before the gene expression of MYC targets was examined by quantitative PCR. […]
Total RNA was extracted from cultured or tumor tissues using RNeasy kit (QIAGEN), according to manufacturer’s instruction. After cDNA synthesis using iScript cDNA Synthesis kit (Bio-Rad), samples were analyzed using pairs of primers specific for CASP9, CASP3, CASP8, BIRC5, BCL2L1, MYC, TP53, VEGF, IL1B, SERPIN3, FGA, CDK4, CCND2, CDKN2A, CDKN2B, GADD45A, mCD274, mMmp9, and mBirc5, as indicated. […]

PS-Gp130: PS-conjugated Gp130 peptide (amino acids 901–910) with phospho-Tyr905 (MPKS[pY]LPQTV; also: phosphorothioate oligonucleotide conjugate; UniProt P40189 901-910, looked up, fragment)
STAT3 signaling (gene expression of STAT3 targets): significantly blocked
